Data reported in PMC8032764 (Scientific Reports, 2021).

Legend:
[1] = system: Adrenergic α2 (non-selective); experiment: Cerep binding; conditions: 10 μM; [3H]RX 821002; rat cerebral cortex
[2] = target: T1, human GABAA α1β3γ2 receptors (Homo sapiens, UniProt P14867+P18507); experiment: [3H]-flumazenil competition binding, HEK293 membranes; conditions: 1 nM [3H]-flumazenil
T1 construct: expressed in transfected cells; host or cells: HEK293-EBNA, transient

[3] = target: human GABAA α5β3γ2 (Homo sapiens, UniProt P18507+P31644); experiment: Two-electrode voltage clamp in Xenopus oocytes, current induced by EC10 of GABA; format: cell-based; design: expressed in transfected cells; host or cells: Xenopus laevis oocytes, cRNA injection
Method: Freshly prepared oocytes of maturation stage VI were bought from Ecocyte Bioscience (Castrop-Rauxel, Germany) and, after overnight delivery, plated into 96-well plates (Greiner no. 651101) for microinjection on a ROBOOCYTE R16 system (Multichannel Systems MCS GmbH, Reutlingen, Germany). Each oocyte was injected with roughly 50 nL of RNA solution. The solution for expressing receptors composed of the human α1, β2 and γ2 subunits contained 3 pg/nL of α1 and β2 RNA and 15 pg/nL of γ2 RNA. The solution for expressing human α2β3γ2 receptors contained 2.5 pg/nL of α2 and β3 RNA, 5 pg/nL of γ2 RNA and 10 pg/nL of GABARAP RNA. The solution for expressing human α3β3γ2 receptors contained 1.3 pg/nL of α3 and β3 RNA and 6.5 pg/nL of γ2 RNA. The solution for expressing human α5β3γ2 receptors contained 1.3 pg/nL of α5 and β3 RNA and 13 pg/nL of γ2 RNA. […] After the microinjection the oocytes were kept at 20 °C temperature until the electrophysiological experiment. Experiments were done 3 to 5 days later on the ROBOOCYTE instrument which employs the two-microelectrode voltage-clamp technique for membrane voltage control and current measurement. […] During current recording and compound testing the cell membrane was constantly clamped to − 80 mV. Current signals were recorded and stored on a PC-type computer using the ROBOOCYTE software.
During the microinjection and up to the electrophysiological experiment the oocytes were kept in a solution containing 88 mM NaCl, 1 mM KCl, 2.5 mM NaHCO3, 10 mM HEPES (AppliChem GmbH, Darmstadt, Germany), 0.82 MgSO4, 0.33 mM Ca(NO3)2, 0.33 mM CaCl2, 100 U/mL penicillin (GIBCO, ThermoFisher Scientific) and 100 µg/mL streptomycine (GIBCO, ThermoFisher Scientific). The pH was adjusted to 7.5. During the experiment the voltage-clamped oocyte was constantly superfused by a solution containing 90 mM NaCl, 1 mM KCl, 5 mM HEPES (AppliChem), 1 mM MgCl2 and 1 mM CaCl2 (pH 7.4). GABA and test compounds were added to this solution. GABA concentrations were chosen according to previously determined concentration–response relations for the different human GABAA receptor subunit combinations. Concentrations evoking approximately 10% of a maximal response were selected, i.e., 8 µM for α1β2γ2, 6 µM for α2β3γ2, 10 µM for α3β3γ2 and 5 µM for α5β3γ2. Solutions containing GABA or test compounds were freshly prepared at least every second day. […] Compounds were further diluted in DMSO and finally in extracellular saline to reach a DMSO concentration of 0.1%. The same amount of DMSO was added to the control solutions without test compounds.
During the experiment the solutions were fed into the well containing the voltage-clamped oocyte via Teflon tubings connected by electromagnetic valves which allowed rapid switching between different solutions (controlled by the ROBOCYTE software). Approximately 1–2 min after impaling an oocyte and switching to voltage-clamp mode GABA was applied for 90 s to record a control response. Thereafter the oocyte was washed with saline for 160 s followed by another 90 s GABA application. Then 30 s after the onset of the second GABA application the system switched to a solution containing GABA plus the test compound. Each oocyte was used for testing one concentration of a single test compound (for α5β3γ2: 1 nM: n = 8, 10 nM: n = 8, 100 nM: n = 7, 1000 nM: n = 7).
In this case each GABA application lasted 110 s and the rest period between the two GABA applications was 190 s long.
On each 96-well plate 3–6 oocytes were used for testing a known NAM at the BZD binding site, β-CCM (FG7106), as a positive control. […] Maximally effective concentrations of β-CCM were used for each subunit combination, i.e., 100 nM β-CCM for α1β2γ2, 300 nM for α2β3γ2 or α3β3γ2 and 1 µM for α5β3γ2.

[4] = system: T2, Adenosine A1; experiment: Cerep binding; design: species or system human; conditions: 10 μM; [3H]DPCPX; hum. recomb. (CHO)
T2 construct: host or cells: CHO

[5] = Pharmacokinetics, single intravenous dosing; format: in vivo; conditions: Beagle, dog, plasma, 1.0 mg/kg i.v.
[6] = system: T3, Serotonin 5-HT2C; experiment: Cerep binding; design: species or system human; conditions: 10 μM; [3H]mesulergine; hum. recomb. (CHO)
T3 construct: purchased Eurofins Cerep

[7] = concentration–response curve, n = 7

## Cc1onc(-c2ccc(F)cc2)c1COc1ccc(C(=O)N2CCS(=O)(=O)CC2)cn1 [basmisanil]
[1]
  % Inhibition: -8%
[2]
  Ki: 1030 ± 54 nM
[3]; 100 nM basmisanil + flumazenil 30 or 1000 nM
  decrease of GABA-induced current under co-treatment with flumazenil: blocked by co-treatment with flumazenil
[3]; 1 µM, highest concentration tested, 5 µM GABA
  reduction of the GABA-evoked current: 42 ± 1%
[3]; [7]
  Hill slope: 0.9
  IC50: 8 nM
[4]
  % Inhibition: 28%
[5]; n=3
  half-life: 588 ± 48 min
[5]; n=3, read-out: Total CL
  clearance: 2.2 ± 0.2 mL/min/kg
[5]; n=3, read-out: Vss
  Vd: 1.7 ± 0.2 L/kg
[6]
  % Inhibition: 10%
